Measurements taken from PubChem BioAssay (NCI).
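Briefly, cells in 96-well plates were exposed to five compound concentrations for 48 h, and endpoints were estimated by linear interpolation. TGI: concentration producing complete growth inhibition.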

What was measured:
Assay in all cases: NCI anticancer screen, dose series, 48 h
786-0 renal = system: 786-0 renal
A498 renal = system: A498 renal
A549 NSCLC = system: A549 NSCLC
ACHN renal = system: ACHN renal
BT-549 breast = system: BT-549 breast
CAKI-1 renal = system: CAKI-1 renal
CCRF-CEM leukemia = system: CCRF-CEM leukemia
COLO 205 colon = system: COLO 205 colon
DU-145 prostate = system: DU-145 prostate
EKVX NSCLC = system: EKVX NSCLC
HCC-2998 colon = system: HCC-2998 colon
HCT-116 colon = system: HCT-116 colon
HCT-15 colon = system: HCT-15 colon
HL-60(TB) leukemia = system: HL-60(TB) leukemia
HOP-62 NSCLC = system: HOP-62 NSCLC
HOP-92 NSCLC = system: HOP-92 NSCLC
HS 578T breast = system: HS 578T breast
HT29 colon = system: HT29 colon
IGROV1 ovarian = system: IGROV1 ovarian
K-562 leukemia = system: K-562 leukemia
KM12 colon = system: KM12 colon
LOX IMVI melanoma = system: LOX IMVI melanoma
M14 melanoma = system: M14 melanoma
MCF7 breast = system: MCF7 breast
MDA-MB-231 breast = system: MDA-MB-231 breast
MDA-MB-435 = system: MDA-MB-435
MDA-N = system: MDA-N
MOLT-4 leukemia = system: MOLT-4 leukemia
NCI-H226 lung = system: NCI-H226 lung
NCI-H23 lung = system: NCI-H23 lung
NCI-H460 lung = system: NCI-H460 lung
NCI-H522 lung = system: NCI-H522 lung
NCI/ADR-RES ovarian = system: NCI/ADR-RES ovarian
OVCAR-3 ovarian = system: OVCAR-3 ovarian
OVCAR-4 ovarian = system: OVCAR-4 ovarian
OVCAR-5 ovarian = system: OVCAR-5 ovarian
OVCAR-8 ovarian = system: OVCAR-8 ovarian
PC-3 prostate = system: PC-3 prostate
RPMI-8226 leukemia = system: RPMI-8226 leukemia
RXF 393 renal = system: RXF 393 renal
SF-268 CNS = system: SF-268 CNS
SF-295 CNS = system: SF-295 CNS
SF-539 CNS = system: SF-539 CNS
SK-MEL-2 melanoma = system: SK-MEL-2 melanoma
SK-MEL-28 melanoma = system: SK-MEL-28 melanoma
SK-MEL-5 melanoma = system: SK-MEL-5 melanoma
SK-OV-3 ovarian = system: SK-OV-3 ovarian
SN12C renal = system: SN12C renal
SNB-19 CNS = system: SNB-19 CNS
SNB-75 CNS = system: SNB-75 CNS
SR leukemia = system: SR leukemia
SW-620 colon = system: SW-620 colon
T-47D breast = system: T-47D breast
TK-10 renal = system: TK-10 renal
U251 CNS = system: U251 CNS
UACC-257 melanoma = system: UACC-257 melanoma
UACC-62 melanoma = system: UACC-62 melanoma
UO-31 renal = system: UO-31 renal
MALME-3M melanoma = system: MALME-3M melanoma

With `O=C1C[C@@H](C(=O)OCc2ccccc2)NC(=O)C[C@@H](C(=O)OCc2ccccc2)NC(=O)C[C@@H](C(=O)OCc2ccccc2)N1` the TGI (786-0 renal) was > 100 µM, the TGI (A498 renal) was > 95.1 µM and the TGI (A549 NSCLC) was > 100 µM. For the same compound, the TGI (ACHN renal) was > 62.9 µM, the TGI (BT-549 breast) was > 100 µM and the TGI (CAKI-1 renal) was > 100 µM. For the same compound, the TGI (CCRF-CEM leukemia) was 2.01 µM, the TGI (COLO 205 colon) was > 100 µM and the TGI (DU-145 prostate) was > 100 µM. The TGI (EKVX NSCLC) was > 100 µM, the TGI (HCC-2998 colon) was > 100 µM and the TGI (HCT-116 colon) was > 100 µM. The TGI (HCT-15 colon) was > 100 µM, the TGI (HL-60(TB) leukemia) was 9.88 µM and the TGI (HOP-62 NSCLC) was > 88.5 µM. The TGI (HOP-92 NSCLC) was > 60.7 µM, the TGI (HS 578T breast) was 72.3 µM and the TGI (HT29 colon) was > 100 µM. The TGI (IGROV1 ovarian) was > 100 µM, the TGI (K-562 leukemia) was 21.8 µM and the TGI (KM12 colon) was > 100 µM. The TGI (LOX IMVI melanoma) was > 100 µM, the TGI (M14 melanoma) was > 100 µM and the TGI (MCF7 breast) was > 100 µM. The TGI (MDA-MB-231 breast) was 70.9 µM, the TGI (MDA-MB-435) was > 100 µM and the TGI (MDA-N) was > 100 µM. The TGI (MOLT-4 leukemia) was 27.3 µM, the TGI (NCI-H226 lung) was > 100 µM and the TGI (NCI-H23 lung) was > 100 µM. The TGI (NCI-H460 lung) was > 100 µM, the TGI (NCI-H522 lung) was > 100 µM and the TGI (NCI/ADR-RES ovarian) was > 100 µM. For the same compound, the TGI (OVCAR-3 ovarian) was > 100 µM, the TGI (OVCAR-4 ovarian) was > 100 µM and the TGI (OVCAR-5 ovarian) was > 100 µM. For the same compound, the TGI (OVCAR-8 ovarian) was > 100 µM, the TGI (PC-3 prostate) was > 100 µM and the TGI (RPMI-8226 leukemia) was > 100 µM. The TGI (RXF 393 renal) was 41.8 µM, the TGI (SF-268 CNS) was 85.8 µM and the TGI (SF-295 CNS) was > 100 µM. For the same compound, the TGI (SF-539 CNS) was > 72.3 µM, the TGI (SK-MEL-2 melanoma) was 66.1 µM and the TGI (SK-MEL-28 melanoma) was > 100 µM. The TGI (SK-MEL-5 melanoma) was > 100 µM, the TGI (SK-OV-3 ovarian) was 97.1 µM and the TGI (SN12C renal) was > 100 µM. For the same compound, the TGI (SNB-19 CNS) was > 100 µM, the TGI (SNB-75 CNS) was 13.7 µM and the TGI (SR leukemia) was 20.7 µM. The TGI (SW-620 colon) was > 100 µM, the TGI (T-47D breast) was > 100 µM and the TGI (TK-10 renal) was 73.6 µM. The TGI (U251 CNS) was > 100 µM, the TGI (UACC-257 melanoma) was > 100 µM and the TGI (UACC-62 melanoma) was > 100 µM. For the same compound, the TGI (UO-31 renal) was > 100 µM.
With `Cc1ccc(OCC2OC(n3cnc4nc(N)nc(Cl)c43)CC2Oc2ccc(C)cc2)cc1` (stereo unspecified) the TGI (786-0 renal) was > 100 µM, the TGI (A498 renal) was 82.3 µM and the TGI (A549 NSCLC) was 58.3 µM. The TGI (ACHN renal) was 35 µM, the TGI (BT-549 breast) was > 100 µM and the TGI (CAKI-1 renal) was 23.6 µM. The TGI (CCRF-CEM leukemia) was > 100 µM, the TGI (COLO 205 colon) was 36.4 µM and the TGI (DU-145 prostate) was 35.9 µM. The TGI (EKVX NSCLC) was 69.4 µM, the TGI (HCC-2998 colon) was 33.6 µM and the TGI (HCT-116 colon) was > 100 µM. The TGI (HCT-15 colon) was 59.3 µM, the TGI (HOP-62 NSCLC) was 52.6 µM and the TGI (HOP-92 NSCLC) was 70 µM. It also gave a TGI (HS 578T breast) of 45.6 µM, a TGI (HT29 colon) of 71.1 µM and a TGI (IGROV1 ovarian) of 44.8 µM. For the same compound, the TGI (KM12 colon) was 44 µM, the TGI (LOX IMVI melanoma) was > 100 µM and the TGI (M14 melanoma) was 41.2 µM. The TGI (MALME-3M melanoma) was 69.2 µM, the TGI (MCF7 breast) was 49 µM and the TGI (MDA-MB-231 breast) was > 100 µM. The TGI (MDA-MB-435) was > 100 µM, the TGI (MDA-N) was 39.5 µM and the TGI (MOLT-4 leukemia) was 52.7 µM. The TGI (NCI-H226 lung) was 47.5 µM, the TGI (NCI-H23 lung) was 36.9 µM and the TGI (NCI-H460 lung) was 97 µM. It also gave a TGI (NCI-H522 lung) of 47.8 µM, a TGI (NCI/ADR-RES ovarian) of 47.2 µM and a TGI (OVCAR-3 ovarian) of 41 µM. For the same compound, the TGI (OVCAR-4 ovarian) was > 100 µM, the TGI (OVCAR-5 ovarian) was 39.7 µM and the TGI (OVCAR-8 ovarian) was 50 µM. The TGI (PC-3 prostate) was 44.6 µM, the TGI (RPMI-8226 leukemia) was 56.5 µM and the TGI (SF-268 CNS) was 44.6 µM. For the same compound, the TGI (SF-295 CNS) was 84.1 µM, the TGI (SF-539 CNS) was > 100 µM and the TGI (SK-MEL-2 melanoma) was 37.7 µM. The TGI (SK-MEL-28 melanoma) was > 100 µM, the TGI (SK-MEL-5 melanoma) was 41.3 µM and the TGI (SK-OV-3 ovarian) was > 100 µM. It also gave a TGI (SN12C renal) of 41.4 µM, a TGI (SNB-19 CNS) of 30.4 µM and a TGI (SNB-75 CNS) of 30.4 µM. For the same compound, the TGI (SR leukemia) was > 100 µM, the TGI (SW-620 colon) was > 100 µM and the TGI (T-47D breast) was 34.7 µM. The TGI (TK-10 renal) was > 100 µM, the TGI (U251 CNS) was > 100 µM and the TGI (UACC-257 melanoma) was > 100 µM. The TGI (UACC-62 melanoma) was > 100 µM.
With `CC1C(=O)N(c2ccccc2)NC12CCCc1ccccc12` (stereo unspecified) the TGI (A498 renal) was > 100 µM, the TGI (A549 NSCLC) was > 100 µM and the TGI (ACHN renal) was > 100 µM. For the same compound, the TGI (BT-549 breast) was > 100 µM, the TGI (CAKI-1 renal) was > 100 µM and the TGI (CCRF-CEM leukemia) was > 100 µM. For the same compound, the TGI (COLO 205 colon) was > 100 µM, the TGI (DU-145 prostate) was > 100 µM and the TGI (EKVX NSCLC) was > 100 µM. The TGI (HCC-2998 colon) was > 100 µM, the TGI (HCT-116 colon) was > 100 µM and the TGI (HCT-15 colon) was > 100 µM. For the same compound, the TGI (HL-60(TB) leukemia) was > 100 µM, the TGI (HOP-62 NSCLC) was > 100 µM and the TGI (HOP-92 NSCLC) was > 100 µM. For the same compound, the TGI (HS 578T breast) was > 100 µM, the TGI (HT29 colon) was > 100 µM and the TGI (IGROV1 ovarian) was > 100 µM. The TGI (K-562 leukemia) was > 100 µM, the TGI (KM12 colon) was > 100 µM and the TGI (LOX IMVI melanoma) was > 100 µM. For the same compound, the TGI (M14 melanoma) was > 100 µM, the TGI (MALME-3M melanoma) was > 100 µM and the TGI (MCF7 breast) was > 100 µM. The TGI (MDA-MB-231 breast) was > 100 µM, the TGI (MDA-MB-435) was > 100 µM and the TGI (MDA-N) was > 100 µM. For the same compound, the TGI (MOLT-4 leukemia) was > 100 µM, the TGI (NCI-H226 lung) was > 100 µM and the TGI (NCI-H23 lung) was > 100 µM. For the same compound, the TGI (NCI-H460 lung) was > 100 µM, the TGI (NCI-H522 lung) was > 100 µM and the TGI (NCI/ADR-RES ovarian) was > 100 µM. For the same compound, the TGI (OVCAR-3 ovarian) was > 100 µM, the TGI (OVCAR-4 ovarian) was > 100 µM and the TGI (OVCAR-5 ovarian) was > 100 µM. For the same compound, the TGI (OVCAR-8 ovarian) was > 100 µM, the TGI (PC-3 prostate) was > 100 µM and the TGI (RPMI-8226 leukemia) was > 100 µM. The TGI (RXF 393 renal) was > 100 µM, the TGI (SF-268 CNS) was > 100 µM and the TGI (SF-295 CNS) was > 100 µM. For the same compound, the TGI (SF-539 CNS) was > 100 µM, the TGI (SK-MEL-2 melanoma) was > 100 µM and the TGI (SK-MEL-28 melanoma) was > 100 µM. The TGI (SK-MEL-5 melanoma) was > 100 µM, the TGI (SK-OV-3 ovarian) was > 100 µM and the TGI (SN12C renal) was > 100 µM. The TGI (SNB-19 CNS) was > 100 µM, the TGI (SNB-75 CNS) was > 100 µM and the TGI (SR leukemia) was > 100 µM. The TGI (SW-620 colon) was > 100 µM, the TGI (T-47D breast) was > 100 µM and the TGI (TK-10 renal) was > 100 µM. For the same compound, the TGI (U251 CNS) was > 100 µM, the TGI (UACC-257 melanoma) was > 100 µM and the TGI (UACC-62 melanoma) was > 100 µM. For the same compound, the TGI (UO-31 renal) was > 100 µM.
